According to the supplement of paper PMC10307832:

Experiments:
Experiment in all cases: relative viability (nuclei count vs DMSO), 5 days (fraction); higher = more cells survive
[1] = compound: CC[C@H](Nc1ncnc2[nH]cnc12)c1nc2cccc(F)c2c(=O)n1-c1ccccc1 [Idelalisib] + COc1cc2c(Oc3ccc(NC(=O)C4(C(=O)Nc5ccc(F)cc5)CC4)cc3F)ccnc2cc1OCCCN1CCOCC1 [Foretinib] (partner 0.25 µM)
Outline: (§1)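 Dosing by pin tool came one day after lung cancer cell lines were seeded in 1536-well plates, using either one drug or a fixed anchor-drug dose plus five library-drug doses (not always all listed) in √10 steps. After 5 days, nuclei were counted on 4× images. Relative viability is treated-well nuclei count divided by vehicle-well nuclei count, and values are medians of duplicate plates.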

[2] = compound: CC[C@H](Nc1ncnc2[nH]cnc12)c1nc2cccc(F)c2c(=O)n1-c1ccccc1 [Idelalisib] + Nc1ncn([C@H]2C[C@H](O)[C@@H](CO)O2)c(=O)n1 [Decitabine] (partner 2 µM)
Outline: as §1

[3] = compound: Nc1nc2[nH]cc(CCc3ccc(C(=O)N[C@@H](CCC(=O)O)C(=O)O)cc3)c2c(=O)[nH]1 [Pemetrexed] + CS(=O)(=O)CCNCc1ccc(-c2ccc3ncnc(Nc4ccc(OCc5cccc(F)c5)c(Cl)c4)c3c2)o1 [Lapatinib] (partner 2 µM)
Outline: as §1

[4] = compound: Nc1nc2[nH]cc(CCc3ccc(C(=O)N[C@@H](CCC(=O)O)C(=O)O)cc3)c2c(=O)[nH]1 [Pemetrexed] + CS(=O)(=O)N1CCN(Cc2cc3nc(-c4cccc5[nH]ncc45)nc(N4CCOCC4)c3s2)CC1 [Pictilisib] (partner 1 µM)
Outline: as §1

Row | Cell Line | relative viability ([1]; first compound 0.04 µM) | relative viability ([1]; first compound 0.1265 µM) | relative viability ([1]; first compound 0.4 µM) | relative viability ([1]; first compound 1.265 µM) | relative viability ([1]; first compound 4 µM) | relative viability ([2]; first compound 0.04 µM) | relative viability ([2]; first compound 0.1265 µM) | relative viability ([2]; first compound 0.4 µM) | relative viability ([2]; first compound 1.265 µM) | relative viability ([2]; first compound 4 µM) | relative viability ([3]; first compound 0.002 µM) | relative viability ([3]; first compound 0.006325 µM) | relative viability ([3]; first compound 0.02 µM) | relative viability ([3]; first compound 0.06325 µM) | relative viability ([3]; first compound 0.2 µM) | relative viability ([4]; first compound 0.002 µM) | relative viability ([4]; first compound 0.006325 µM) | relative viability ([4]; first compound 0.02 µM) | relative viability ([4]; first compound 0.06325 µM) | relative viability ([4]; first compound 0.2 µM)
1 | HCC-15 | 1.09 | 1.02 | 0.975 | 1.18 | 0.94 | 0.687 | 0.692 | 0.547 | 0.82 | 0.622 | 0.751 | 0.763 | 1 | 0.655 | 0.444 | 0.629 | 0.777 | 0.766 | 0.544 | 0.238
2 | SW 1573 | 1.05 | 1.07 | 0.786 | 0.986 | 0.971 | 0.462 | 0.6 | 0.537 | 0.261 | 0.38 | 1.12 | 1.11 | 1.19 | 1.07 | 1.12 | 0.421 | 0.475 | 0.488 | 0.533 | 0.463
3 | NCI-H838 | 1.08 | 0.947 | 0.912 | 0.931 | 0.821 | 0.467 | 0.44 | 0.478 | 0.563 | 0.464 | 0.904 | 0.93 | 1.35 | 0.856 | 0.329 | 0.443 | 0.392 | 0.532 | 0.267 | 0.248
4 | RERF-LC-KJ | 0.879 | 0.953 | 0.809 | 0.871 | 0.768 | 0.757 | 0.739 | 0.692 | 0.573 | 0.521 | 0.739 | 0.835 | 0.842 | 0.892 | 0.692 | 0.579 | 0.471 | 0.558 | 0.594 | 0.277
5 | NCI-H2170 | 0.952 | 1.05 | 0.947 | 1.03 | 0.947 | 0.507 | 0.471 | 0.505 | 0.438 | 0.417 | 0.302 | 0.282 | 0.268 | 0.293 | 0.297 | 0.303 | 0.307 | 0.242 | 0.305 | 0.276
6 | PC-14 | 1.05 | 0.988 | 0.933 | 0.995 | 0.968 | 0.295 | 0.194 | 0.215 | 0.166 | 0.209 | 0.194 | 0.271 | 0.38 | 0.291 | 0.223 | 0.663 | 0.618 | 0.642 | 0.321 | 0.133
7 | NCI-H2009 | 1.17 | 1.21 | 1.16 | 1.23 | 1.14 | 0.4 | 0.35 | 0.322 | 0.405 | 0.381 | 0.745 | 0.871 | 0.999 | 0.905 | 0.915 | 0.785 | 0.763 | 0.824 | 0.744 | 0.723
8 | NCI-H1395 | 1.02 | 0.959 | 0.976 | 0.963 | 0.707 | 0.724 | 0.657 | 0.726 | 0.712 | 0.607 | 0.875 | 1.02 | 1.11 | 0.922 | 0.883 | 0.824 | 0.58 | 0.679 | 0.54 | 0.574
9 | NCI-H1437 | 1.24 | 1.32 | 1.24 | 1.36 | 1.42 | 0.55 | 0.59 | 0.62 | 0.635 | 0.55 | 0.364 | 0.777 | 0.799 | 0.463 | 0.232 | 0.297 | 0.422 | 0.389 | 0.267 | 0.193
10 | NCI-H647 | 1.18 | 1.35 | – | 0.895 | 0.746 | 0.332 | 0.408 | 0.3 | 0.318 | 0.193 | – | 1.08 | 1.16 | 0.889 | 0.264 | 0.283 | 0.449 | 0.355 | 0.382 | 0.202
11 | NCI-H1793 | 0.764 | 0.54 | 0.381 | 0.685 | 0.409 | 0.404 | 0.398 | – | 0.454 | 0.38 | 0.543 | 0.769 | 0.619 | 0.704 | 0.619 | 0.303 | 0.299 | 0.341 | 0.247 | 0.311
12 | SK-MES-1 | 0.904 | 0.768 | 0.55 | 0.768 | 0.544 | 0.399 | 0.414 | 0.36 | 0.248 | 0.257 | 0.473 | 0.423 | 0.469 | 0.453 | 0.457 | 0.34 | 0.327 | 0.349 | 0.322 | 0.401
13 | NCI-H2087 | 1.28 | 1.04 | 0.842 | 0.908 | 0.579 | 0.357 | 0.337 | 0.217 | 0.244 | 0.269 | 0.965 | 0.952 | 1.21 | 0.927 | 0.644 | 0.692 | 0.79 | 0.938 | 0.67 | 0.581
14 | BEN | 0.751 | 0.567 | 0.539 | 0.856 | 0.661 | 0.736 | 0.649 | 0.757 | 0.775 | 0.694 | 0.811 | 0.594 | 0.817 | 0.663 | 0.624 | 0.53 | 0.564 | 0.591 | 0.539 | 0.525
15 | NCI-H3122 | 0.963 | 0.939 | 1 | 0.982 | 0.836 | 0.461 | 0.418 | 0.358 | 0.444 | 0.369 | 1.01 | 1.02 | 1.02 | 0.97 | 0.847 | 0.6 | 0.584 | 0.628 | 0.526 | 0.338
16 | LCLC-97TM1 | 1.1 | 0.961 | 0.877 | 1.03 | 0.776 | 0.254 | 0.223 | 0.269 | 0.262 | 0.226 | 1.32 | 0.653 | 1.05 | 1.21 | 0.353 | 0.163 | 0.159 | 0.173 | 0.133 | 0.115
17 | COR-L23 | 1.12 | 1.02 | 0.982 | 1.08 | 0.898 | 0.489 | 0.49 | 0.46 | 0.471 | 0.401 | 0.853 | 0.815 | 1.05 | 0.365 | 0.192 | 0.58 | 0.688 | 0.825 | 0.24 | 0.147
18 | EMC-BAC-2 | 0.972 | 0.988 | 0.963 | 0.868 | 0.963 | 1 | 1.03 | 0.942 | 1.05 | 0.941 | 0.792 | 0.777 | 0.961 | 0.903 | 0.888 | 0.534 | 0.465 | 0.564 | 0.579 | 0.421
19 | NCI-H1944 | 1 | 0.877 | 0.752 | 0.804 | 0.759 | 0.468 | 0.452 | 0.433 | 0.431 | 0.429 | 0.866 | 0.766 | 0.846 | 0.834 | 0.839 | 0.307 | 0.345 | 0.337 | 0.345 | 0.327
20 | A-427 | 1.27 | 0.946 | 0.962 | 1.04 | 1.06 | 0.57 | 0.564 | 0.545 | 0.562 | 0.507 | 0.974 | 1.06 | 1.09 | 1.14 | 0.819 | 0.646 | 0.759 | 0.804 | 0.746 | 0.642
21 | NCI-H520 | 0.738 | 0.741 | 0.587 | 0.7 | 0.553 | 0.506 | 0.386 | 0.45 | 0.502 | 0.431 | 0.803 | 0.886 | 0.833 | 0.829 | 0.838 | 0.247 | 0.254 | 0.349 | 0.322 | 0.275
22 | NCI-H650 | 1.05 | 1.05 | 0.948 | 1.05 | 1 | 0.345 | 0.324 | 0.344 | 0.348 | 0.28 | 0.829 | 0.924 | 0.524 | 0.849 | 0.841 | 0.831 | 0.756 | 0.861 | 0.786 | 0.851
23 | COR-L 105 | 1.01 | 1.34 | 0.992 | 1.01 | 0.672 | 0.567 | 0.667 | 0.513 | 0.615 | 0.642 | 0.404 | 0.389 | 0.375 | 0.406 | 0.315 | 0.406 | 0.463 | 0.423 | 0.386 | 0.416
24 | NCI-H1755 | 0.951 | 0.915 | 0.889 | 0.843 | 0.9 | 0.724 | 0.637 | 0.729 | 0.7 | 0.803 | 0.808 | 1 | 1.03 | 1.04 | 0.894 | 0.327 | 0.416 | 0.532 | 0.45 | 0.318
25 | NCI-H2085 | 0.971 | 0.913 | 0.688 | 0.777 | 0.556 | 0.528 | 0.57 | 0.622 | 0.596 | 0.61 | 0.717 | 0.692 | 0.88 | 0.801 | 0.768 | 0.503 | 0.425 | 0.506 | 0.548 | 0.507
26 | NCI-H2023 | 0.92 | 0.859 | 0.617 | 0.739 | 0.637 | 0.25 | 0.236 | 0.241 | 0.197 | 0.208 | 0.292 | 0.726 | 1.01 | 0.66 | 0.202 | 0.136 | 0.231 | 0.237 | 0.218 | 0.117
27 | HOP-62 | 1.15 | 1.05 | 1.15 | 1.15 | 1.1 | 0.277 | 0.199 | 0.262 | 0.231 | 0.235 | 0.885 | 1.07 | 0.898 | 1.14 | 0.982 | 0.351 | 0.666 | 0.817 | 0.655 | 0.655
